Consider 1 substance from patent US6313170A, “L-threonate ferrous, as well as pharmaceutical composition and use for improving and treating human anemia thereof” (priority 1997, dated 2001).

Read-outs that look alike come from different tables or passages of the source.

For series [1] the following is noted: rat, in vivo, po, 72 h. As to the method:
Its chemical formula is Fe(C4 H7 O5)2.2H2 O, molecular weight:362.
Animals: Male Wistar rats were supplied by Experimental Animal Center, Tumor Institute of Heilongjian Province with body weight of 140 g-180 g. The iron-low diet contains iron 0.9 mg/kg.
50 rats were randomly divided into 5 groups of [19] 10 rats each. On this basis of administration of iron-low diet, each group of rats was administered respectively by gavage according to the dosage below:
High dosage group: Fe, 5 mg/kg, ferrous L-threonate, 32.32 mg/kg;
Middle dosage group: Fe, 2.5 mg/kg, ferrous L-threonate, 16.16 mg/kg;
Low dosage group: Fe, 1.0 mg/kg, ferrous L-threonate, 6.46 mg/kg;
Positive drug control group (ferrous sulfate): Fe, 2.5 mg/kg, ferrous sulfate, 12.43 mg/kg;
Negative drug control group (iron-low diet): Fe, 0.9 mg/kg (measured value).
After the end of 7 days feeding normal diet period, rats were supplemented with iron-low diet prepared according to AOAC formula for another 7 days. The 1-3 groups were treatment groups and supplemented with ferrous L-threonate 32.32 mg/kg (5 mgFe/kg, high dose group), 16.16 mg/kg (2.5 mg Fe/kg, middle dose group) and 6.46 mg/kg (1.0 mg Fe/kg, low dose group), respectively. The forth, positive drug control group, was provided with ferrous sulfate 12.43 mg/kg (2.5 mg Fe/kg). The fifth was model control group and was offered with iron-low diet (0.9 mg Fe/kg). Each groups were arranged to take drug one time by I.G (gavage) method per day and in the same time were supplemented with deionized water.
The test was sustained three days. Each rat's excrement was collected, dried at temperature 80-90° C., weighed and ground into 40-60 meshes. About 0.5 to 0.6 gram sample was taken and a mixture of nitric acid and perchloric acid at a ratio of 4:1 was added therein until completion of digestion. The constant volume is 10 ml. The iron content of excrement was determined by atomic absorption method and the iron absorptive rate for each rat can be calculated by the formula listed below. [formula]

For series [2] the following is noted: in vivo, po.
For series [3] the following is noted: water.

As to ferrous L-threonate, the values for the Absorptivity in series [1] (1 mg/kg), in series [1] (2.5 mg/kg) and in series [1] (5 mg/kg) were 59.10 ± 5.01%, 54.90 ± 4.08% and 42.60 ± 1.79%, respectively. In addition, the “embryonic toxicity and aberration” value in series [2] was “did not produce embryonic toxicity and abberation”. Moreover, in series [3], the solubility entry is “soluble in water”.
